{"source": "paper PMC10325900", "about": "“A conserved motif in the disordered linker of human MLH1 is vital for DNA mismatch repair and its function is diminished by a cancer family mutation” (Nucleic Acids Research, 2023)", "target": "MLH1-PMS2", "assay": "Comparison of MMR restoration with theoretical binding curves of peptide to protein", "design": "species or system human", "conditions": "theoretical binding curves at 11.1 nM MLH1; not a direct binding measurement; read-out: KD whose theoretical fraction of peptide binding to a protein corresponds to the degree of MMR restoration", "procedure": "Figure 4. Reaction of DNA mismatch repair to addition of ConMot peptide. (A) Nuclear extract of MLH1-proficient HEK293 cells was used for performing the DNA mismatch repair reaction. Four reactions were undertaken, with two reactions supplemented with either 7.5 μM or 75 μM ConMot-32 peptide. A negative control reaction was performed by omitting the 37°C repair incubation. (B) MMR reactions were performed with nuclear extract of MLH1-deficient HEK293T cells supplemented with extract of cells transfected either with wildtype MLH1-PMS2 (positive control) or with MLH1-ΔConMot-PMS2. […] (C) The concentration-dependence of the MMR-activating effect of the ConMot-32 peptide observed in (B) was measured over a concentration range from 1–75 μM. […] Into this diagram, the average MMR activities (and standard deviations) measured in >3 of the experiment exemplarily shown in C were introduced as bars at ConMot-32 peptide concentrations of 1, 2.5, 7.5, 18 and 75 μM.\nWe investigated the effect of the ConMot peptide more closely by titrating the required peptide concentrations for activation. We determined that the mismatch repair reactions performed in this study contained approximately 280 fmol MLH1 (Supplementary Figure S4A and B), which is in good agreement with previous quantifications of MLH1-PMS2 in cells and extracts ([96]). […]\nB. Immunoblot band intensities were determined. […]", "note": "No end group written: not given here."}
{"sequence": "SGSSDKVYAHQMVRTDSREQKLDAFLQPLSKP [ConMot-32]", "values": [{"measurement": "Kd", "value": "~7.5", "unit": "µM"}]}
